The source of these data is patent US12194033B2, “Glycine receptor modulators and methods of use” (University of Pittsburgh—Of the Commonwealth System of …, priority 2017, dated 2025).

Several values for one entry are separate records, joined by “and”; a condition that tells them apart may be missing. Equal entries are not always repeated.

The target of one data set is DOR (Homo sapiens, UniProt P41143). Kind of data set: Radioligand binding assay, off-target profiling. The note with it: 10 M MJPY1, mean, n = 4.
Chain of DOR (P41143 whole entry): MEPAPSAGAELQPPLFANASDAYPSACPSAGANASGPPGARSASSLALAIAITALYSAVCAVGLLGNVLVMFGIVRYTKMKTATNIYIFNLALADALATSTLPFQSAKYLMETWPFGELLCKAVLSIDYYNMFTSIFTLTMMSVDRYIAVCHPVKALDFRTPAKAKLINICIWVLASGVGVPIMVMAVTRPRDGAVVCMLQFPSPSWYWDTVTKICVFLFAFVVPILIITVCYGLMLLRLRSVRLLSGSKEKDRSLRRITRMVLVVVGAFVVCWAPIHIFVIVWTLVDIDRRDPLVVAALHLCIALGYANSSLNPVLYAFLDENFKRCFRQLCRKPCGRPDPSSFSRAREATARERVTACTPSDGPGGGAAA
The subject of data set [1] is TA100 strain Salmonella typhimurium. The data set is described as follows: In vitro Ames test. It is filed as cell-based. The note with it: S9 rat liver extract. The protocol: Toxicity was evaluated using in vitro Ames test and in vivo immune responses flow cytometry. Compound 1 (MJPY1) at each concentration was tested in three 48-well plates using the TA100 strain Salmonella typhimurium and S9 rat liver extract for base-pair substitution mutations. Error bars represent SEM. Significance (p<0.05) was evaluated compared to the control (0 μM) using one-way ANOVA with the Bonferroni post-hoc test. FIGS. 15A and 15B show flow cytometry evaluation of common inflammatory markers in the liver and spleen of mice in response to compound 1 (MJPY1) treatment. Mice received either 2 mg/kg of MJPY1 (right) or vehicle (left) ˜16 hours prior to sacrifice and tissue collection. Significant differences between the treatment and control were observed only for decreased CD11b+ in the liver of mice treated with MJPY1 (p<0.001). […] Results were analyzed by one-way ANOVA with Bonferroni post-hoc test.
On the technique in general: The Ames test uses bacterial strains that need an amino acid and regain growth without it when mutated back.

The test system of a further data set is CD1 mice. The data set is described as follows: Hargreaves test under CFA-induced hyperalgesic conditions in CD1 mice. It is filed as in vivo. The protocol: Under CFA-induced hyperalgesic conditions, the maximum possible effect, % MPE=(response−baseline)/(cut-off time−baseline), was measured for the application of compound 1 alone (0.05 mg/kg, blue, n=12; 0.01 mg/kg, orange, n=4), morphine alone (0.1 mg/kg, green, n=8), and compound 1 with morphine at three different dosage combinations: 0.05 mg/kg compound 1 with 0.1 mg/kg morphine (light blue, n=6), 0.01 mg/kg compound 1 with 0.1 mg/kg morphine (pink, n=10), and 0.01 mg/kg compound 1 with 0.01 mg/kg morphine (red, n=4). […] Error bars designate the standard error of the mean.
0.05 mg/kg compound 1 was tested for tolerance in CFA-treated mice (red). Under CFA-induced hyperalgesic conditions (24 hours post-application of CFA), 0.05 mg/kg compound 1 was administered to CD1 mice and responses to the Hargreaves test were measured immediately after the initial injection (application time=0) and again after a repeated dose given 1.5 hours (FIG. 7A) or 24 hours (FIG. 7B) after the effects of the first dose wore off. The black circles represent the responses of naïve mice (i.e., no administration of compound 1 or CFA), and the red circles represent the responses of mice receiving compound 1 under CFA-induced hyperalgesic conditions. […] Error bars designate the standard error of the mean (n=4).
Responses of CD1 mice to the Hargreaves test were assessed after application of 0.1 mg/kg of the indicated compounds (black) or vehicle (white) under CFA-induced hyperalgesic conditions as shown in FIGS. 8A-8H. The assessed compounds were compounds 1 (8A), 2 (8B), 3 (8C), 4 (8D), 5 (8E), 6 (8F), 7 (8G), and 8 (8H). […] Error bars designate the standard error of the mean (n≥4).
Dose response curves from the Hargreaves test in mice with a CFA-inflamed left hind paw at 1.5 and 2 hr after intraperitoneal injection of compound 1. Percent Maximum Possible Effect (% MPE) was calculated from paw withdrawal latencies.
Tolerance to compound 1 (MJPY1) and compound 3 (MJPY2) was measured by repeated dosing in the Hargreaves Test. […] Mice (n=6/group) received repeated i.p. injections of vehicle or 0.1 mg/kg compound 1 (MJPY1) or compound 3 (MJPY2) once a day for 5 days. CFA inflammation was induced on day 4, and PWL was measured 0.5 hr before and every 10 min after treatment on day 5. Data were binned to 30-min blocks (mean±SEM).

A further data set concerns the target T1, CB1 (Homo sapiens, UniProt P21554).
T1 construct: expressed in transfected cells
The data set is described as follows: PRESTO-TANGO functional assay CB1. It is filed as cell-based. The settings on record: against positive controls, n=3. The protocol:
(§1) The specificity of compound 1 (MJPY1) to act only on glycine receptors was determined. No cross reactivity with other commonly known receptors was detected (FIG. 16 and Table 2). […] Activity is reported in relative luminescence units (RLU) as mean and SEM (n=3).

Another data set addresses T2, CB2 (Homo sapiens, UniProt P34972).
T2 construct: expressed in transfected cells
The data set is described as follows: PRESTO-TANGO functional assay CB2. It is filed as cell-based. The note with it: against positive controls, n=3. The protocol:
as §1

T2 sequence (P34972 whole entry): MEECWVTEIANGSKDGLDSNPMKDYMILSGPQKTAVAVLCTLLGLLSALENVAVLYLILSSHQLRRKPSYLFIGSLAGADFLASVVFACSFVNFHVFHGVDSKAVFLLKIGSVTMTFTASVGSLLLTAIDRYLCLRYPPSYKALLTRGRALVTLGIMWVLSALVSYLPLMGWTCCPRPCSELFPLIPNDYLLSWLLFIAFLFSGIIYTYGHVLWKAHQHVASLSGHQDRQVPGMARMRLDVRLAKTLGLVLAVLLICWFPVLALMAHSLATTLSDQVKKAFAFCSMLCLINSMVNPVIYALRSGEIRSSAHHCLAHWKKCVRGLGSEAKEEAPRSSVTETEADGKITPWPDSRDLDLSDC
T1 sequence (P21554 whole entry): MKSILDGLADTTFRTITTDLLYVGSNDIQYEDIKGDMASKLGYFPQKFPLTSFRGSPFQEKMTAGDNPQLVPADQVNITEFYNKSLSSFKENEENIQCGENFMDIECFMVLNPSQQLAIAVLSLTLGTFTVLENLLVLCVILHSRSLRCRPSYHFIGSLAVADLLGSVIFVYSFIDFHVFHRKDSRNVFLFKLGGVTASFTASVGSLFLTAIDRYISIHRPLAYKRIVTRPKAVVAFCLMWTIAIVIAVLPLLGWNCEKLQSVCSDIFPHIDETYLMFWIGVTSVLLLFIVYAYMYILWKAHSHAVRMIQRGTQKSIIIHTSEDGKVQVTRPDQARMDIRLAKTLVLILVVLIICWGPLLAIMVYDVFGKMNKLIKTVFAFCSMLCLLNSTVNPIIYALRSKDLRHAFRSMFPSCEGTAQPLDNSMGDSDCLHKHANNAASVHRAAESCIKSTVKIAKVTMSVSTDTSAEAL

In the case of `NC(=O)c1cccc(CNC(=O)c2ccc3c4c(cccc24)CC3)c1` [compound 1, N-[(3-carbamoylphenyl)-methyl]-1,2-dihydroacenaphthylene-5-carboxamide], the “% Inhibition DOR” value on DOR stood at 7.1%. Moreover, the “mutagenic activity (base-pair substitution mutations)” value in data set [1] was “little mutagenic activity”. The “tolerance (time to paw withdrawal, first vs second dosing)” value with CD1 mice (0.05 mg/kg, CD1 mice, CFA, repeated dose 1.5 or 24 hours after first dose wore off) is “No tolerance”. In addition, the “tolerance after repeated dosing (PWL)” value with CD1 mice (0.1 mg/kg i.p. once a day for 5 days, CFA on day 4) is “negligible tolerance”. Moreover, the “response time for paw withdrawal compared to vehicle” value in the data set on CD1 mice (0.1 mg/kg, CD1 mice, CFA-induced hyperalgesic conditions) is given as “increase in the response time”. Moreover, the “EC50 for inflammatory pain (% MPE dose response, Hill fit)” value with CD1 mice (CFA-inflamed left hind paw, 1.5 and 2 hr after intraperitoneal injection (both time points), CD1 mice) is ~0.030 mg/kg and ~0.03 mg/kg. For the same compound, at CB1, the “agonist or antagonist activity on CB1 (RLU)” value was “no agonist (top) or antagonist (bottom) activity”. In addition, the “agonist or antagonist activity on CB2 (RLU)” value on CB2 is given as “no agonist (top) or antagonist (bottom) activity”.
